The values below come from patent US10793577B2, “Fused bicyclic compounds for the treatment of disease” (AKARNA THERAPEUTICS, LTD., priority 2014, dated 2020).

Bounds are passed on as bounds.

As usually defined, the EC50 is the midpoint of the concentration-response curve.

In the experiment the target is T1, FXR (Homo sapiens, UniProt Q96RI1).
T1 construct: expressed in transfected cells
T1 sequence (Q96RI1 1-486): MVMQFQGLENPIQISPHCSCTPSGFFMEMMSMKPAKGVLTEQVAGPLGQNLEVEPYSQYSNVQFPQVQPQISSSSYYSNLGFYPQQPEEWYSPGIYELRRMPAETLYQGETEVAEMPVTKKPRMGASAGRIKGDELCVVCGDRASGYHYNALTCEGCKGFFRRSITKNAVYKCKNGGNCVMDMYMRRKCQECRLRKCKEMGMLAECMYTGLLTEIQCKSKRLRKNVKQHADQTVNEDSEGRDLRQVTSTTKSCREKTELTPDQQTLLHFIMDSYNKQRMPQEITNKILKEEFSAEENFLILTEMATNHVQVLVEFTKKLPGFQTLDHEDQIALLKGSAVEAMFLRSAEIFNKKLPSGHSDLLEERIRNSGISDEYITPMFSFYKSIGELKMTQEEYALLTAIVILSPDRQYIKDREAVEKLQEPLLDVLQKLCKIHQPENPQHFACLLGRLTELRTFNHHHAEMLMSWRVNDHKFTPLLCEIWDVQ
In words: FXR agonist transactivation assay (luciferase reporter). Type of experiment: cell-based. The following applies: transiently transfected cells, 18 h stimulation with test compound, luciferase normalized to Renilla. How it is done:
Example 21: FXR Agonist Transactivation Assay
For the transactivation assay, cells were transiently transfected with 100 ng of reporter vector and 10 ng of expression plasmid. Forty nanograms of pGL4.74 was used as internal control for transfection efficiency. The pGEM vector was added to normalize the amounts of DNA transfected in each assay (2 μg). All transfections were performed using FuGENE HD (Roche, Mannheim, Germany) according to the manufacturer's protocol. Twenty-four hours after transfection, cells were stimulated with increasing concentrations of the test compounds for further 18 h. Control cultures receive vehicle (0.1% DMSO) alone. Luciferase values were normalized with Renilla reniformis luciferase units, for transfection efficiency.
In turn, `COc1nc2c3c([nH]c2cc1Cl)C(C(=O)OC(C)C)=CN(C(=O)c1ccc(F)c(F)c1)CC3(C)C` [Compound 101, propan-2-yl 5-chloro-4-methoxy-12-(3,4-difluorobenzoyl)-14,14-dimethyl-3,8,12-triazatricyclo[7.5.0.02,7]tetradeca-1(9),2,4,6,10-pentaene-10-carboxylate] had an EC50 of less than 1000 nM.

The molecule `CC(C)OC(=O)C1=CN(C(=O)c2ccc(F)c(F)c2)CC(C)(C)c2c1[nH]c1ncccc21` [Compound 57, propan-2-yl 12-(3,4-difluorobenzoyl)-14,14-dimethyl-6,8,12-triazatricyclo[7.5.0.02,7]tetradeca-1(9),2,4,6,10-pentaene-10-carboxylate] came in with a concentration for a half-maximal effect (EC50) of less than 1000 nM.

`CCOC(=O)C1=CN(C(=O)c2ccc(F)c(F)c2)CC(C)(C)c2c1[nH]c1cccnc21` [Compound 56, eth-2-yl 12-(3,4-difluorobenzoyl)-14,14-dimethyl-3,8,12-triazatricyclo[7.5.0.02,7]tetradeca-1(9),2,4,6,10-pentaene-10-carboxylate]: the EC50 was less than 1000 nM.

As to `CC(C)OC(=O)C1=CN(C(=O)c2ccc(F)c(F)c2)CC(C)(C)c2c1[nH]c1cc(OCCO)c(Cl)nc21` [Compound 72, Propan-2-yl 12-(3,4-difluorobenzoyl)-14,14-dimethyl-5-(2-hydroxyethoxy)-4-chloro-3,8,12-triazatricyclo[7.5.0.02,7]tetradeca-1(9),2,4,6,10-pentaene-10-carboxylate], the EC50 was 1000 to 10000 nM.

`CC(C)OC(=O)C1=CN(C(=O)c2ccc(Cl)c(Cl)c2)CC(C)(C)c2c1[nH]c1ncc(Cl)cc21` [Compound 9, Propan-2-yl 4-chloro-12-(3,4-dichlorobenzoyl)-14,14-dimethyl-6,8,12-triazatricyclo[7.5.0.02,7]tetradeca-1(9),2,4,6,10-pentaene-10-carboxylate] returned an EC50 of 1000 to 10000 nM.

Turning to `COc1ccc2[nH]c3c(c2n1)C(C)(C)CN(C(=O)c1ccc(F)c(F)c1)C=C3C(=O)OC(C)C` [Compound 42, Propan-2-yl 12-(3,4-difluorobenzoyl)-14,14-dimethyl-4-methoxy-3,8,12-triazatricyclo[7.5.0.02,7]tetradeca-1(9),2,4,6,10-pentaene-10-carboxylate], the EC50 is less than 1000 nM.

The molecule `CC(C)OC(=O)C1=CN(C(=O)c2ccc(F)c(F)c2)CC(C)(C)c2c1[nH]c1cc(F)cnc21` [Compound 33] registered a 50% effective concentration (EC50) of less than 1000 nM.

In turn, `CC(C)OC(=O)C1=CN(C(=O)c2ccc(F)cc2)CC(C)(C)c2c1[nH]c1ncc(Cl)cc21` [Compound 11, propan-2-yl 4-chloro-12-(4-fluorobenzoyl)-14,14-dimethyl-6,8,12-triazatricyclo[7.5.0.02,7]tetradeca-1(9),2,4,6,10-pentaene-10-carboxylate] yielded a concentration giving a half-maximal response (EC50) of 1000 to 10000 nM.

With `CCOC(=O)C1=CN(C(=O)c2ccc(F)c(F)c2)CC(C)(C)c2c1[nH]c1ncccc21` [Compound 58, eth-2-yl 12-(3,4-difluorobenzoyl)-14,14-dimethyl-6,8,12-triazatricyclo[7.5.0.02,7]tetradeca-1(9),2,4,6,10-pentaene-10-carboxylate], the 50% effective concentration (EC50) was less than 1000 nM.

As to `COc1ccc2[nH]c3c(c2n1)C(C)(C)CN(C(=O)c1ccc(OCCN2CCOCC2)cc1)C=C3C(=O)OC(C)C` [Compound 91, propan-2-yl 12-(4-(2-morpholinoethoxy)benzoyl)-14,14-dimethyl-4-(methoxy)-3,8,12-triazatricyclo[7.5.0.02,7]tetradeca-1(9),2,4,6,10-pentaene-10-carboxylate], the concentration giving a half-maximal response (EC50) is less than 1000 nM.

The molecule `CC(C)NC(=O)C1=CN(C(=O)c2ccc(F)c(F)c2)CC(C)(C)c2c1[nH]c1cc(Cl)cnc21` [Compound 85, 3-chloro-8-(3,4-difluorobenzoyl)-N-isopropyl-10,10-dimethyl-5,8,9,10-tetrahydropyrido[2′,3′:4,5]pyrrolo[2,3-d]azepine-6-carboxamide] returned an EC50 of less than 1000 nM.

For `CC(C)OC(=O)C1=CN(C(=O)c2ccc(F)c(F)c2)CC(C)(C)c2c1[nH]c1cccnc21` [Compound 55, Propan-2-yl 12-(3,4-difluorobenzoyl)-14,14-dimethyl-3,8,12-triazatricyclo[7.5.0.02,7]tetradeca-1(9),2,4,6,10-pentaene-10-carboxylate], the concentration for a half-maximal effect (EC50) is less than 1000 nM.

As to `CC(C)OC(=O)C1=CN(C(=O)c2ccc(F)c(F)c2)CC(C)(C)c2c1[nH]c1ncc(F)cc21` [Compound 59, propan-2-yl 4-fluoro-12-(3,4-difluorobenzoyl)-14,14-dimethyl-6,8,12-triazatricyclo[7.5.0.02,7]tetradeca-1(9),2,4,6,10-pentaene-10-carboxylate], the EC50 was less than 1000 nM.

As to `COc1ccc2[nH]c3c(c2n1)C(C)(C)CN(C(=O)c1ccc(F)cc1)C=C3C(=O)OC(C)C` [Compound 43, propan-2-yl 12-(4-fluorobenzoyl)-14,14-dimethyl-4-methoxy-3,8,12-triazatricyclo[7.5.0.02,7]tetradeca-1(9),2,4,6,10-pentaene-10-carboxylate], the EC50 is less than 1000 nM.

Molecule `CC(C)OC(=O)C1=CN(C(=O)c2ccc(F)c(F)c2)CC(C)(C)c2c1[nH]c1ccc(OCCO)nc21` [Compound 84, Propan-2-yl 12-(3,4-difluorobenzoyl)-14,14-dimethyl-4-(2-hydroxyethoxy)-3,8,12-triazatricyclo[7.5.0.02,7]tetradeca-1(9),2,4,6,10-pentaene-10-carboxylate] showed an EC50 of less than 1000 nM.

For the molecule “propan-2-yl 4-chloro-12-(4-(2-morpholinoethoxy)benzoyl)-14,14-dimethyl-6,8,12-triazatricyclo[7.5.0.02,7]tetradeca-1(9),2,4,6,10-pentaene-10-carboxylate [Compound 89]”, the concentration for a half-maximal effect (EC50) was less than 1000 nM.

As to `CC(C)OC(=O)C1=CN(C(=O)c2ccc(F)c(F)c2)CC(C)(C)c2c1[nH]c1ncc(Cl)cc21` [Compound 10, propan-2-yl 4-chloro-12-(3,4-difluorobenzoyl)-14,14-dimethyl-6,8,12-triazatricyclo[7.5.0.02,7]tetradeca-1(9),2,4,6,10-pentaene-10-carboxylate], the half-maximal effective concentration (EC50) was less than 1000 nM.

`CC(C)OC(=O)C1=CN(C(=O)c2ccc(F)c(F)c2)CC(C)(C)c2c1[nH]c1cc(Cl)cnc21` [Compound 22, Propan-2-yl 5-chloro-12-(3,4-difluorobenzoyl)-14,14-dimethyl-3,8,12-triazatricyclo[7.5.0.02,7]tetradeca-1(9),2,4,6,10-pentaene-10-carboxylate] showed a half-maximal effective concentration (EC50) of less than 1000 nM.
